Reference: patent US20240238241A1, “PHARMACEUTICAL COMPOSITION FOR TREATMENT OF PANCREATIC CANCER AND BILE DUCT CANCER” (JAPAN SCIENCE AND TECHNOLOGY AGENCY, priority 2021, published 2024)

Key:
[1] = test system: ZIC5 low-expressing melanoma cell lines (Colo829 line, SKmel28 line); assay: apoptosis induction rate after compound treatment; assay type: cell-based, human; parameters: dose or concentration left out as unconfirmed; conditions: 48 hours
Procedure: (§1) The apoptosis induction rate (%) was measured as follows. First, a CellEvent Caspase-3/7 Green Detection Reagent (manufactured by Invitrogen Corporation) and Hoechst 33342 were added to each kind of cell, followed by incubation for 40 minutes. Next, the staining state of the cells after incubation was analyzed by using a DAPI filter and an FITC filter of an imaging cytometer “IN Cell Analyzer 2000” (manufactured by GE Healthcare). The proportion (%) of Caspase-3/7 active cells (CellEvent Caspase-3/7 Green Detection Reagent positive cells) with respect to all DAPI-stained cells (DAPI positive cells) was determined by “IN Cell Analyzer Workstation 3.7” (manufactured by GE Healthcare), and this was defined as the apoptosis induction rate (%). The statistical difference was determined according to the Tukey's multiple comparison test (n=3, *p<0.05, **p<0.01, ***p<0.001).
(§2) A total of 7 kinds of cells of 2 kinds of vemurafenib-resistant lines derived from human melanoma (an A375vemR line and an HT144vemR line), 2 kinds of ZIC5 high-expressing melanoma cell lines (an A375 line and an HT144 line), 2 kinds of ZIC5 low-expressing melanoma cell lines (a Colo829 line and an SKmel28 line), and a ZIC5 non-expressing normal human melanocyte cell (NHM) were treated with the compound (T-1) or compound (T-2), and regarding the cells that had been subsequently cultured for 48 hours, the apoptosis induction rate (%) was determined in the same manner as in Example 1. […]

[2] = test system: ZIC5 high-expressing melanoma cell lines (A375 line, HT144 line); assay: apoptosis induction rate after compound treatment; assay type: cell-based, human; parameters: dose or concentration left out as unconfirmed; conditions: 48 hours
Procedure: as §1, §2

ZIC5 protein [3] = target: T1, ZIC5 protein (Homo sapiens, UniProt Q96T25); assay: Western blotting of ZIC5 protein/GAPDH in A375 cells (none overexpressed); assay type: cell-based; conditions: 0, 0.1, 0.5 or 1 μM; 48 hours
T1 sequence (Q96T25 1-639): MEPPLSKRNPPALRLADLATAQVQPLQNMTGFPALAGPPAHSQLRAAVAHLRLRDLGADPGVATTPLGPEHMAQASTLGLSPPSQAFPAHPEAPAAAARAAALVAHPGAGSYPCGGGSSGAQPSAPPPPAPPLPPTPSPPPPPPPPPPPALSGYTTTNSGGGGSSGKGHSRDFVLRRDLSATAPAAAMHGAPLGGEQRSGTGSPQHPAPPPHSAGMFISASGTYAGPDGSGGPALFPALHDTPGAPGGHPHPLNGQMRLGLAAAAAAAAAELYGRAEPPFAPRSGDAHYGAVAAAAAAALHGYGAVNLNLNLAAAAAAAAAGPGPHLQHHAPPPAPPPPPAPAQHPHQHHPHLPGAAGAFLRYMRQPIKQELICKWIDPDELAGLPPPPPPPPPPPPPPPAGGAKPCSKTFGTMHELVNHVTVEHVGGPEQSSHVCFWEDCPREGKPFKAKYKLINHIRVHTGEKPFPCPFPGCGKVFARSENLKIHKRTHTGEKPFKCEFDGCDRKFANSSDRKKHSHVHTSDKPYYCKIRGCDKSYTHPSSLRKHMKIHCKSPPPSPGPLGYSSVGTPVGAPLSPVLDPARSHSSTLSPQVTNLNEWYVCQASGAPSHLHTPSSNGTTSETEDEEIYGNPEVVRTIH
Procedure: Regarding the compound (T-1) and the compound (T-2), the effect on the amount of the intracellular ZIC5 protein was investigated according to the Western blotting method. Specifically, A375 cells (none was overexpressed therein) were subjected to the addition of the compound (T-1) or the compound (T-2) so that the concentration thereof was 0, 0.1, 0.5, or 1 μM, and the cells were cultured for 48 hours. The cells after being cultured were recovered, and Western blotting was carried out using an anti-ZIC5 antibody and an anti-GAPDH antibody. The amount of each protein was quantified from a density of a band in the Western blotting image.

A375 cells = assay: relative cell number after compound then BRAF inhibitor vemurafenib; assay type: cell-based, human; conditions: 0.5 μM T-1 or 50 nM T-2 for 48 hours, then vemurafenib 0.1 μM for 72 hours
Procedure: Specifically, 0.5 μM of the compound (T-1) or 50 nM of the compound (T-2) was added to A375 cells, culturing was carried out for 48 hours, and then vemurafenib was added thereto a concentration of 0.1 μM, and culturing was further carried out for 72 hours. After the culturing, cell nuclei were stained with Hoechst to count the number of cells. The number of cells of the A375 cells cultured without adding any compound was set to 1, and the relative cell number of each kind of cell was determined.

ZIC5 protein [4] = target: T1, ZIC5 protein; assay: secondary screening: ZIC5 protein quantified by anti-ZIC5 immunostaining and imaging cytometer in A375 cells overexpressing ZIC5; conditions: A-375, read-out: ZIC5 Protein Amount (Relative Value);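 note: compounds added at 0.1, 1, 5 or 10 µM to A375 cells overexpressing ZIC5 without a fusion tag, cells fixed the next day, ND means cells died before measurement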
Procedure: In the secondary screening, A375 cells overexpressing the ZIC5 protein (without a fusion protein) were subjected to the addition of the primary hit compound to a final concentration of 0.1 μM, 1 μM, 5 μM, or 10 μM and cultured, and then the cells were fixed on the next day. The fixed cells were subjected to staining by using an anti-ZIC5 antibody (clone: GTX104840) and an Alexa Fluor 568-anti-rabbit IgG antibody as a secondary antibody, and the amount of the ZIC5 protein was quantified using the imaging cytometer.

[5] = test system: ZIC5 non-expressing normal human melanocyte cell (NHM); assay: apoptosis induction rate after compound treatment; assay type: cell-based; parameters: dose or concentration left out as unconfirmed; conditions: 48 hours
Procedure: as §1, §2

[6] = test system: vemurafenib-resistant lines derived from human melanoma (A375vemR line, HT144vemR line); assay: apoptosis induction rate after compound treatment; assay type: cell-based; parameters: dose or concentration left out as unconfirmed; conditions: 48 hours
Procedure: as §1, §2

A375 melanoma cells = assay: relative cell number in cells transfected with ZIC5 expression plasmid (Z5) or empty vector (C); assay type: cell-based, human; conditions: 0.1 or 0.5 μM T-1, 10 nM T-2; 4 days; Z5 versus empty vector
Procedure: Specifically, a ZIC5 expression plasmid (Z5) or an empty vector (C) was introduced into A375 melanoma cells by transfection, and cells into which each of the plasmids had been introduced were selected. Next, these cells were subjected to the addition of 0.1 μM or 0.5 μM of the compound (T-1) or 10 nM of the compound (T-2) and cultured for 4 days. After the culturing, cell nuclei were stained with Hoechst, and the number of cells was counted with an imaging cytometer “IN Cell Analyzer 2000”. The number of cells, into which an empty vector had been introduced and which had not been subjected to the compound treatment, was set to 1, and the relative cell number of each kind of cell was determined. […] In the figure, “C” is for cells into which the empty vector has been introduced, and “Z5” is for cells into which the ZIC5 expression plasmid has been introduced.

[7] = test system: pancreatic cancer cell lines (AsPC-1, Panc-1, MiaPaca-2) and bile duct cancer cell line (RBE); assay: apoptosis induction rate with gemcitabine after siRNA transfection; assay type: cell-based; conditions: gemcitabine 0.1 μM, 48 hours
Procedure: as §1
Next, each kind of cell was introduced by transfection with siNeg and siZIC5 listed in Table 2 and cultured for 24 hours. Then, gemcitabine, which is a standard therapeutic drug for pancreatic cancer and bile duct cancer, was added thereto, the culture was further carried out for 48 hours, and then the apoptosis induction rate (%) was investigated.

| SMILES | remaining activity at 0.1 µM (ZIC5 protein [4]) | remaining activity at 1 µM (ZIC5 protein [4]) | remaining activity at 5 µM (ZIC5 protein [4]) | other results |
| --- | --- | --- | --- | --- |
| O=C1C=C2C(=CCOC2O)O1 (stereo not drawn) [Compound T-1] | 83.4% | 76.7% |  | apoptosis induction ([1]; both ZIC5 low-expressing lines): did not induce apoptosis; apoptosis induction [2]: induced apoptosis; relative amount of the ZIC5 protein ([amount of ZIC5 protein]/[amount of GAPDH protein]) (ZIC5 protein [3]): reduced depending on the concentrations; relative cell number in combination with vemurafenib (A375 cells): synergistically reduce the number of cells; apoptosis induction [5]: did not induce apoptosis; apoptosis induction [6]: induced apoptosis; apoptosis induction and suppression of cancer cell proliferation in ZIC5-overexpressing cells (Z5) (A375 melanoma cells): restored |
| COc1cc(O)c2c(c1)/C=C/C[C@H](O)[C@H](O)C(=O)/C=C\C[C@H](C)OC2=O [Compound T-2] | 89.6% | 83.1% | 72.8% | apoptosis induction ([1]; Colo829 line): induced apoptosis; apoptosis induction ([1]; SKmel28 line): did not induce apoptosis; apoptosis induction [2]: induced apoptosis; relative amount of the ZIC5 protein ([amount of ZIC5 protein]/[amount of GAPDH protein]) (ZIC5 protein [3]): reduced depending on the concentrations; relative cell number in combination with vemurafenib (A375 cells): synergistically reduce the number of cells; remaining activity at 10 µM (ZIC5 protein [4]): 70.8%; apoptosis induction [5]: did not induce apoptosis; apoptosis induction [6]: induced apoptosis; apoptosis induction and suppression of cancer cell proliferation in ZIC5-overexpressing cells (Z5) (A375 melanoma cells): restored |
| C=C1C(=O)O[C@H]2C1CC/C(C)=C\CC[C@@]1(C)O[C@H]21 (stereo partly drawn) [Compound T-3] | 89.8% | 98.2% | 55.3% |  |
| C=C(C)[C@H]1O[C@H]2CC[C@@]3(C)[C@@](O)(CC[C@H]4C5OC(C)(C)[C@H]6C[C@@H]7C(=C)Cc8c(Cl)cc9[nH]c(c5c9c8[C@@]76O)[C@@]43C)[C@]23O[C@@H]3[C@H]1O (stereo partly drawn) [Compound T-4] | 111% | 96% | 75.4% |  |
| CCCCCCCCCCCCC/C=C/[C@H](O)[C@H](N)CO [Compound T-5] | 108% | 118% | 62.6% |  |
| CC(=O)O[C@H]1C[C@]2(O)[C@@H]3CC[C@@H]4C[C@@H](O)CC[C@]4(C)[C@H]3CC[C@]2(C)[C@H]1c1ccc(=O)oc1 [Compound T-7] | 103% | 76.4% |  |  |
| CC(=O)O[C@H]1[C@H]2O[C@@]23[C@@H]2CC[C@]4(O)C[C@@H](O)CC[C@]4(C)[C@H]2CC[C@]3(C)[C@H]1c1ccc(=O)oc1 [Compound T-8] | 88.2% | 90.8% | 70.5% | remaining activity at 10 µM (ZIC5 protein [4]): 44.7% |
| C[C@@H]1O[C@@H](O[C@@H]2C=C3CC[C@@H]4[C@H](CC[C@]5(C)[C@@H](c6ccc(=O)oc6)CC[C@]45O)[C@@]3(C)CC2)[C@H](O)[C@H](O)[C@H]1O [Compound T-10] | 70.2% | 42.1% | 50% |  |
| C[C@@H]1O[C@@H](O[C@H]2C[C@@H](O)[C@]3(CO)[C@H]4[C@H](O)C[C@]5(C)[C@@H](C6=CC(=O)OC6)CC[C@]5(O)[C@@H]4CC[C@]3(O)C2)[C@H](O)[C@H](O)[C@H]1O [Compound T-11] | 90.6% | 67.8% |  |  |
| C[C@@H]1O[C@@H](O[C@H]2CC[C@]3(C=O)[C@H]4CC[C@]5(C)[C@@H](c6ccc(=O)oc6)CC[C@]5(O)[C@@H]4CC[C@]3(O)C2)[C@H](O)[C@H](O)[C@H]1O[C@@H]1O[C@H](CO)[C@@H](O)[C@H](O)[C@H]1O [Compound T-12] | 76.8% | 72.5% | 57.1% |  |
| Nc1ccn([C@@H]2O[C@H](CO)[C@@H](O)C2(F)F)c(=O)n1 [gemcitabine] |  |  |  | apoptosis induction [7]: apoptosis was induced |
